This series deals with jck mice. Kind of series: jck mouse model of polycystic kidney disease, 0.225% Compound A in feed, 26-64 days of age. It is filed as in vivo. The settings on record: for K/BW ratio (%) / Body weight / BUN / Cystic volume (% BW): treated, 26-64 days of age; for K/BW ratio (%) / Body weight: 0.225% in feed ad libitum; for Body weight: at sacrifice; for BUN / Cystic volume (% BW): 0.225% in feed; for Cystic volume (% BW): percentage cystic area multiplied by kidney/body weight ratio. The procedure: jck mice was administered Compound A ad libitum in feed (0.225% Compound A mixed with a standard diet chow in powdered format) from 26-64 days of age. Control jck mice were fed a control powdered diet from 26-64 days of age. At 63 days of age, animals were transferred to metabolic cages for 24 hour urine collection. At 64 days of age, animals were sacrificed by CO2 administration. Blood was collected by heart puncture for serum isolation. Kidneys were isolated and bisected; half of each kidney was fixed in 4% paraformaldehyde in PBS overnight for paraffin embedding and H&E staining.
Total body weight and kidney weight were determined at sacrifice.
Cyst volume was measured by quantitating the percentage of cystic area in histological sections of kidneys from the treated and control animals, multiplied by the kidney/body weight ratio.
Blood urea nitrogen (BUN) levels were determined in serum samples derived from animals at sacrifice.

Setting [1] is: treated vs control jck mice, p-value<0.05, two-tailed t-test.

As for `CCCCCCCCC(=O)N[C@H](CN1CCCC1)[C@H](O)c1ccc2c(c1)OCCO2` [Compound A, N-((1R,2R)-1-(2,3-dihydrobenzo[1,4|]dioxin-6-yl)-1-hydroxy-3-(pyrrolidin-1-yl)propan-2-yl)nonanamide], where the note is “female jck mice”, the “K/BW ratio (%)” value is 3.57 ± 0.58 %, the “Body weight” value stood at 15.93 ± 1.65 g and the “Cystic volume (% BW)” value worked out at 0.58 ± 0.29 % BW. Besides, where the note is “female jck mice, serum at sacrifice”, the “BUN” value is 34.67 ± 9.41 mg/dL. For the setting “in feed at 0.225%, both males and females”, the “cystic disease, as measured by kidney/body weight ratio and cyst volume” value is “statistically significant reduction”. Further, the “PKD in a mouse model” value (jck mice) was “Effectively Inhibited PKD”. Under “male jck mice”, the “K/BW ratio (%)” value came out at 4.46 ± 0.46 %, the “Body weight” value is recorded as 18.43 ± 1.82 g and the “Cystic volume (% BW)” value is given as 0.88 ± 0.23 % BW. Moreover, under “male jck mice, serum at sacrifice”, the “BUN” value was determined as 39.25 ± 10.70 mg/dL. Besides, the renal function result (treated animals relative to controls, in feed at 0.225%, both males and females) is given as “improved renal function”. Further, under setting [1], the cyst volume entry is “significant decrease”, the “kidney weight/body weight ratio” value is on record as “significant difference” and the total body weight result is recorded as “statistically significant decrease”. The BUN levels entry (treated vs untreated control jck mice, serum at sacrifice, p-value<0.05, two-tailed t-test) is on record as “significant reduction”.

Source of the values: patent US10220039B2, “Method of treating polycystic kidney diseases with ceramide derivatives” (Genzyme Corporation, priority 2007, dated 2019).
